Square brackets hold non-standard residues; d marks the D form. Peptide text beside a SMILES is read from it. * marks the point of attachment. pNA = O=[N+]([O-])c1ccc(N*)cc1; Nle = CCCC[C@H](N)C(=O)O; Orn = NCCC[C@H](N)C(=O)O
Legend:
Assay type in all cases: biochemical
thrombin = thrombin (Homo sapiens, UniProt P00734); assay: Kinetic parameters of hydrolysis of the substrates by thrombin in buffer A at 37° C. (Example 4, Table 3); parameters: Pure human α-thrombin; gift of Dr. T. Lindhout (University of Limburg, Maastricht); key to Thrombin kcat: NH: no hydrolysis; settings: for Km / Thrombin kcat / Thrombin kcat /Km: buffer A, 37° C.
Experimental: (§1) Kinetic parameters: The hydrolysis experiments were run in buffer A at 37° C. The liberation of p-nitroaniline was monitored at 405 nm in a dual wavelength (405-546 nm) spectrophotometer made in our workshop, using a personal computer for data recording. In a polystyrene microcuvette (total volume 500 μL), buffer A and substrate solution were added to obtain a final substrate concentration between 200 to 2000 μM. After 5 min of incubation at 37° C., enzyme solution was added to achieve a final concentration between 0.5 to 50 nM. The measurement was carried out at 37° C. in a thermostated cuvette-holder. The Michaelis constant (Km) and the catalytic constant (kcat) were obtained by measuring the initial reaction velocities at different substrate concentrations. The data obtained were fitted by linear regression on the Michaelis-Menten equation.
(§2) Kinetic parameters: The Km and kcat values for each substrate were determined at an enzyme concentration of 0.5-50 nM (thrombin) and 50 nM factor Xa. From the initial reaction velocities, measured for at least six substrate concentrations between 200 and 2000 μM, the Km and kcat values were calculated by linear regression on the Michaelis-Menten curve. Table 3 gives an overview of the kinetic parameters of the different substrates hydrolyzed by thrombin and by factor Xa in buffer A.

factor Xa = target: T1, factor Xa (Homo sapiens, UniProt P00742); assay: Kinetic parameters of hydrolysis of the substrates by factor Xa in buffer A at 37° C. (Example 4, Table 3); parameters: key to Factor Xa kcat: NH: no hydrolysis; settings: for Factor Xa kcat / Factor Xa kcat /Km / Km: buffer A, 37° C., 50 nM factor Xa
T1 construct: human factor Xa samples; gift of Dr. T. Lindhout (University of Limburg, Maastricht)
T1 sequence (P00742 41-179 limits assumed): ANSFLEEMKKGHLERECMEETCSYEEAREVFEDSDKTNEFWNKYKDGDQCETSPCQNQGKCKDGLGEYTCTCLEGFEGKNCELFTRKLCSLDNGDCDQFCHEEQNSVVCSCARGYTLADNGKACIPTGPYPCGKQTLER
T1 sequence (P00742 235-488 limits assumed): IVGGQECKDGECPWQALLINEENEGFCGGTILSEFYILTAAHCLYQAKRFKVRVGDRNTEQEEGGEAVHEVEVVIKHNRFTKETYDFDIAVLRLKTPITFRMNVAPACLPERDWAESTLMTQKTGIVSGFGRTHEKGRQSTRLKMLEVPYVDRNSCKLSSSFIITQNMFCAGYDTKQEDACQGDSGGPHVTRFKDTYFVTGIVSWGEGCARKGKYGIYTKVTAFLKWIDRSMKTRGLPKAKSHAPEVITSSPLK
Experimental: as §1, §2

human α-thrombin = target: T2, human α-thrombin (Homo sapiens, UniProt P00734); assay: Kinetics of hydrolysis of substrates by human α-thrombin in buffer A at 37° C. (Example 2, Table 1)
T2 construct: Pure human α-thrombin; gift of Dr. T. Lindhout (University of Limburg, Maastricht)
Experimental: as §1, with “between 1” for “between 200”, “to 100” for “to 50”, “measuring” for “measuring the”
Kinetic parameters: In a preliminary experiment, the substrate was hydrolyzed under the following conditions: enzyme concentration: 10 to 20 nM, substrate concentration: 200 μM in buffer A to get an impression of the initial velocity. […] The results are given in table 1 and 2 for thrombin and factor Xa respectively. The Km and kcat for each substrate were determined from the initial velocities measured for at least six substrate concentrations in the concentration range as given. The enzyme concentration used gives a good signal to noise ratio. The data given are obtained from one or two experiments. The data from table 1 and 2 were only used as the first selection criterion to get a rough impression of the hydrolysis behaviour. Notwithstanding the preliminary character of the measurement it was helpful in the design of the substrates of our interest.

SMILES | Km (thrombin) | Thrombin kcat (thrombin) | Thrombin kcat /Km (thrombin) | Factor Xa kcat (factor Xa) | Factor Xa kcat /Km (factor Xa) | Km (factor Xa) | hydrolysis by thrombin (text on Table 3) (thrombin) | hydrolysis by Factor Xa (text on Table 3) (factor Xa) | Km (human α-thrombin) | kcat (human α-thrombin) | kcat /Km (human α-thrombin)
CC(C)[C@H](NC(=O)CNC(=O)[C@@H]1CCCN1C(=O)CNC(=O)[C@@H](N)CCC(=O)O)C(=O)N[C@@H](CCCNC(=N)N)C(=O)Nc1ccc([N+](=O)[O-])cc1 [2HCl.H-EGPGVR-pNA, 2HCl.H-Glu-Gly-Pro-Gly-Val-Arg-pNA] (H-EGPGVR-pNA) | 1070 µM | 9.07 s⁻¹ | 8440 M/s | 3.41 s⁻¹ | 1560 M/s | 2190 µM |  |  |  |  | 
CCCC[C@H](NC(=O)[C@@H](NC(=O)OCCS(C)(=O)=O)C(C)C)C(=O)Nc1ccc([N+](=O)[O-])cc1 [Msc-Val-Nle-pNA] |  | NH |  | NH |  |  |  |  |  |  | 
CC(C)[C@H](NC(=O)OCCS(C)(=O)=O)C(=O)N[C@@H](CCCN)C(=O)Nc1ccc([N+](=O)[O-])cc1.Cl [Msc-Val-Orn-pNA.HCl] |  | NH |  | NH |  |  |  |  |  |  | 
CCCC[C@H](NC(=O)[C@@H](NC(=O)CN)C(C)C)C(=O)Nc1ccc([N+](=O)[O-])cc1.Cl [HCl.H-Gly-Val-Nle-pNA] (H-Gly-Val-[Nle]-pNA) |  | NH |  | NH |  |  | hydrolysed by neither thrombin nor Factor Xa | hydrolysed by neither thrombin nor Factor Xa |  |  | 
CC(C)[C@H](NC(=O)CNC(=O)CNC(=O)CNC(=O)[C@@H](N)CCC(=O)O)C(=O)N[C@@H](CCCNC(=N)N)C(=O)Nc1ccc([N+](=O)[O-])cc1 [2HCl.H-EGGGVR-pNA, 2HCl.H-Glu-Gly-Gly-Gly-Val-Arg-pNA] (H-EGGGVR-pNA) | 379 µM | 0.27 s⁻¹ | 704 M/s | 0.30 s⁻¹ | 201 M/s | 1490 µM |  |  |  |  | 
CC(C)[C@H](NC(=O)CN)C(=O)N[C@@H](CCCCN)C(=O)Nc1ccc([N+](=O)[O-])cc1.Cl.Cl [2HCl.H-Gly-Val-Lys pNA, 2HCl.H-Gly-Val-Lys-pNA] (H-Gly-Val-Lys-pNA) | 986 µM | 0.20 s⁻¹ | 198 M/s | NH |  |  | hydrolysed by thrombin | not by Factor Xa |  |  | 
Cl.Cl.NCCCC[C@H](NC(=O)[C@@H]1CCCN1C(=O)[C@H](N)Cc1ccccc1)C(=O)Nc1ccc([N+](=O)[O-])cc1 [2HCl.H-D-Phe-Pro-Lys-pNA] (H-[dF]-Pro-Lys-pNA) | 35 µM | 90 s⁻¹ | 2.58e+06 M/s | NH |  |  |  |  | 35 µM | 90.4 s⁻¹ | 2.58e+06 M/s
CC(C)C(N)C(=O)NC(CCCCN)C(=O)Nc1ccc([N+](=O)[O-])cc1.Cl.Cl (stereo not drawn) [2HCl.H-Val-Lys-pNA] |  | NH |  | NH |  |  |  |  |  |  | 
CC(C)[C@H](NC(=O)OCCS(C)(=O)=O)C(=O)N[C@@H](CCCCN)C(=O)Nc1ccc([N+](=O)[O-])cc1.Cl [Msc-Val-Lys-pNA.HCl] |  | NH |  | NH |  |  |  |  |  |  | 
CC(C)[C@H](NC(=O)CNC(=O)[C@@H](N)CCC(=O)O)C(=O)N[C@@H](CCCNC(=N)N)C(=O)Nc1ccc([N+](=O)[O-])cc1 [2HCl.H-Glu-Gly-Val-Arg-pNA] (H-EGVR-pNA) | 3270 µM | 3.51 s⁻¹ | 1070 M/s | 0.93 s⁻¹ | 638 M/s | 1430 µM |  |  |  |  | 
CC(C)[C@H](NC(=O)CN)C(=O)N[C@@H](CCCN)C(=O)Nc1ccc([N+](=O)[O-])cc1.Cl.Cl [2HCl.H-Gly-Val-Orn-pNA] (H-Gly-Val-[Orn]-pNA) |  | NH |  | NH |  |  | hydrolysed by neither thrombin nor Factor Xa | hydrolysed by neither thrombin nor Factor Xa |  |  | 
CC(C)[C@H](NC(=O)CNC(=O)CNC(=O)[C@@H]1CCCN1C(=O)[C@@H](N)CCC(=O)O)C(=O)N[C@@H](CCCNC(=N)N)C(=O)Nc1ccc([N+](=O)[O-])cc1 [2HCl.H-EPGGVR-pNA, 2HCl.H-Glu-Pro-Gly-Gly-Val-Arg-pNA] (H-EPGGVR-pNA) |  | NH |  | 0.45 s⁻¹ | 468 M/s | 961 µM |  |  |  |  | 
CC(C)[C@H](NC(=O)[C@@H](N)CCC(=O)O)C(=O)N[C@@H](CCCNC(=N)N)C(=O)Nc1ccc([N+](=O)[O-])cc1.Cl.Cl [2HCl.H-Glu-Val-Arg-pNA] (H-Glu-Val-Arg-pNA) | 932 µM | 1.44 s⁻¹ | 1540 M/s | 1.07 s⁻¹ | 709 M/s | 1510 µM |  |  |  |  | 
